Measured values as given in ChEMBL document CHEMBL1150698, “Placidenes C-F, novel alpha-pyrone propionates from the Mediterranean sacoglossan Placida dendritica” (J Nat Prod, 2003).

Experiments:
Gambusia affinis = assay: Toxicity in Gambusia affinis; format: organism-based; settings: in vivo
[1] = Stability at pH 1 to 5; format: physicochemical; settings: buffer

SMILES: CCCC(C)/C=C/c1oc(=O)cc(OC)c1C (configuration not stated) [PLACIDENE D]
- Activity (Gambusia affinis): Non-toxic

SMILES: CCC(C)/C=C/c1oc(=O)cc(OC)c1C (configuration not stated) [PLACIDENE C]
- Activity (Gambusia affinis): Non-toxic
- Stability [1]: Stable

SMILES: C/C=C(C)\C=C(/C)c1oc(=O)c(C)c(OC)c1C [PLACIDENE F]
- Activity (Gambusia affinis): Non-toxic

SMILES: CCCC(C)c1oc(=O)cc(OC)c1C (configuration not stated) [PLACIDENE E]
- Activity (Gambusia affinis): Non-toxic

SMILES: CC/C=C(C)\C=C(/C)c1oc(OC)c(C)c(=O)c1C [PLACIDENE A]
- Activity (Gambusia affinis): Non-toxic
- Stability [1]: Stable
